The test addresses T1, EBP-Ig (N-terminal 225 amino acids of the human EPO receptor joined to an Ig heavy chain) (Homo sapiens, UniProt P19235).
T1 construct: Ig heavy chain (fusion partner); made in house; host or cells: NSO cells (secreted into conditioned media)
T1 sequence (P19235 25-250 limits assumed): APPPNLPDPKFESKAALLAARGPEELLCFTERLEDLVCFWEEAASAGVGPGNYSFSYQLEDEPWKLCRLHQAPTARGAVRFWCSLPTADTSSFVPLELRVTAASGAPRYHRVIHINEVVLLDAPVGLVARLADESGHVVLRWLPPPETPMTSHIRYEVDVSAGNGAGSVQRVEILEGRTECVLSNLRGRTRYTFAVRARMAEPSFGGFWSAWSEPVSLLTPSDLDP
In words: Inhibition of [125I]EPO binding to immobilized EBP-Ig (EPO binding protein-Ig), scintillation Flash plate competition assay. The note with it: for IC30 μM (Inhibition of EPO binding to EBP-Ig): 0–500 μM test compound; for % inh @ 50 μM (Inhibition of EPO binding to EBP-Ig): 50 μM test compound, average % inhibition.

Where [1] appears, read: read-out: % inh @ 50 μM (Inhibition of EPO binding to EBP-Ig).
The mark [2] stands for this setting: read-out: EPO/EBP-Ig % inh @ 50 μM, Table 11, 50 μM.

What is called IC50 is the concentration that inhibits the measured activity by half.

Where two headings read alike, the source gives them in different places.

In the case of `COC(=O)[C@H](COC(C)(C)C)NC/C=C/c1ccc(-c2ccccc2)cc1` [compound 353], the “EPO/EBP-Ig % inh @ 50 μM” value (50 μM compound, Table 20A) was found to be 24%.

Consider `COC(=O)[C@H](COC(C)(C)C)NC/C=C/c1cccc(Oc2ccc(Cl)c(Cl)c2)c1` [compound 354], for which the “EPO/EBP-Ig % inh @ 50 μM” value (50 μM compound, Table 20A) was 31%.

In the case of `COC(=O)[C@H](COC(C)(C)C)NC/C=C/c1cccc(Oc2cccc(C(F)(F)F)c2)c1` [compound 355], for the setting “50 μM compound, Table 20A”, the “EPO/EBP-Ig % inh @ 50 μM” value is on record as 22%.

On to `COC(=O)[C@H](COC(C)(C)C)NC/C=C/c1cccc(Oc2ccc(C(C)(C)C)cc2)c1` [compound 356], for which, for the setting “50 μM compound, Table 20A”, the “EPO/EBP-Ig % inh @ 50 μM” value came out at 23%.

Regarding `CC(C)(C)OC[C@H](NC/C=C/c1cccc(Oc2cccc(C(F)(F)F)c2)c1)C(=O)O` [compound 357], for the setting “50 μM compound, Table 20A”, the “EPO/EBP-Ig % inh @ 50 μM” value is on record as 12%.

Turning to `C[C@H](O)[C@H](NC/C=C/c1ccc(C(F)(F)F)cc1)C(=O)O.O=C(O)C(F)(F)F` [compound 358], the “EPO/EBP-Ig % inh @ 50 μM” value (50 μM compound) was 0%.

`COC(=O)[C@H](Cc1ccccc1)NC/C=C/c1ccccc1` [compound 360]: the “EPO/EBP-Ig % inh @ 50 μM” value (50 μM compound) stood at 18%.

As for `CC(=O)O.COC(=O)c1cccc(/C=C/CN[C@@H](Cc2ccccc2)C(=O)OC)c1` [compound 361], the “EPO/EBP-Ig % inh @ 50 μM” value (50 μM compound) turned out to be 24%.

Take `O=C(O)C(F)(F)F.O=C(O)[C@H](Cc1ccc(O)cc1)NC/C=C/c1ccc(C(F)(F)F)cc1` [compound 362]: the “EPO/EBP-Ig % inh @ 50 μM” value (50 μM compound) was 0%.

With `COC(=O)c1cccc(C=CCNC(Cc2ccc(OC)cc2)C(=O)OC)c1` (stereo not drawn) [compound 363], the “IC30 μM (Inhibition of EPO binding to EBP-Ig)” value (0.5 nM [125I]EPO) amounted to 35 µM. The inhibition at 50 µM came out at 33% under setting [1] and 33% (read-out: EPO/EBP-Ig % inh @ 50 μM, 50 μM compound). Besides, the IC50 (read-out: IC50, μM (Inhibition of EPO binding to EBP-Ig), 0.5 nM [125I]EPO, concentration reducing corrected total binding to 50%) came out at 220 µM.

For `COC(=O)[C@H](Cc1c[nH]c2ccccc12)NC/C=C/c1ccccc1` [compound 364], the “EPO/EBP-Ig % inh @ 50 μM” value (50 μM compound) is on record as 16%.

Take `CSCC[C@H](NC/C=C/c1ccc(C(F)(F)F)cc1)C(=O)O.O=C(O)C(F)(F)F` [compound 365]: where the note is “50 μM compound”, the “EPO/EBP-Ig % inh @ 50 μM” value is recorded as 0%.

`CC(=O)O.COC(=O)CC(NCC=Cc1cccc(C(=O)OC)c1)C(=O)OC` (stereo not drawn) [compound 366]: for the setting “0.5 nM [125I]EPO”, the “IC30 μM (Inhibition of EPO binding to EBP-Ig)” value came out at 65 µM and the “% inh @ 50 μM (Inhibition of EPO binding to EBP-Ig)” value was 38%. In addition, the “EPO/EBP-Ig % inh @ 50 μM” value (50 μM compound) is 38%.

`NC(=O)C[C@H](NC/C=C/c1ccc(C(F)(F)F)cc1)C(=O)O.O=C(O)C(F)(F)F` [compound 367]: the “EPO/EBP-Ig % inh @ 50 μM” value (50 μM compound) is recorded as 0%.

As for `CC(=O)O.COC(=O)c1cccc(C=CCNC(CSCc2ccccc2)C(=O)OC)c1` (stereo not drawn) [compound 368], where the note is “0.5 nM [125I]EPO”, the “IC30 μM (Inhibition of EPO binding to EBP-Ig)” value turned out to be 90 µM and the “% inh @ 50 μM (Inhibition of EPO binding to EBP-Ig)” value was determined as 40%. Further, the “EPO/EBP-Ig % inh @ 50 μM” value (50 μM compound) was 40%.

Regarding `CC(C)C[C@H](NC/C=C/c1ccc(C(F)(F)F)cc1)C(=O)O.O=C(O)C(F)(F)F` [compound 369], the “EPO/EBP-Ig % inh @ 50 μM” value (50 μM compound) stood at 12%.

`CC(C)[C@H](NC/C=C/c1ccc(C(F)(F)F)cc1)C(=O)O.O=C(O)C(F)(F)F` [compound 370]: the “EPO/EBP-Ig % inh @ 50 μM” value (50 μM compound) is 0%.

As to `CC(=O)O.COC(=O)c1cccc(C=CCNC(C(=O)OC)C(C)C)c1` (stereo not drawn) [compound 371], where the note is “50 μM compound”, the “EPO/EBP-Ig % inh @ 50 μM” value amounted to 16%.

In the case of `COC(=O)[C@H](C)NC/C=C/c1ccccc1` [compound 372], the “EPO/EBP-Ig % inh @ 50 μM” value (50 μM compound) is given as 0%.

As to `NCCCCC(C(=O)O)N(CC=Cc1cccs1)CC=Cc1cccs1` (stereo not drawn) [cpd 50], the “EPO/EBP-Ig % inh @ 50 μM” value (Table 3, 50 μM) is −6%.

Consider `Cc1ccc(C(=O)Nc2cccc(CN(Cc3cccc(NC(=O)c4ccc(C)cc4)c3)C(CC(=O)O)C(=O)O)c2)cc1` (stereo not drawn) [cpd 64, N,N-bis(3-(4-Methylbenzoyl)aminobenzyl)Asp-OH], for which the “EPO/EBP-Ig % inh @ 50 μM” value (Table 4, 50 μM) is on record as −4%.

For `COC(=O)C(CCC(=O)OC(C)(C)C)N(CC=Cc1cccc(Oc2ccccc2)c1)CC=Cc1cccc(Oc2ccccc2)c1` (stereo not drawn) [cpd 96, N,N-bis(3-Phenoxycinnamyl)Glu(O-t-Bu)-OMe], the “EPO/EBP-Ig % inh @ 50 μM” value (Table 6, 50 μM) is given as −5%.

Regarding `CC(C)(C)OC(=O)CC(C(=O)OC(C)(C)C)N(CC=Cc1cccc(Oc2ccccc2)c1)CC=Cc1cccc(Oc2ccccc2)c1` (stereo not drawn) [cpd 106, N,N-bis(3-Phenoxycinnamyl)Asp(O-t-Bu)-O-t-Bu], for the setting “Table 6, 50 μM”, the “EPO/EBP-Ig % inh @ 50 μM” value is on record as 20%.

In the case of `O=C(O)CC(C(=O)O)N(CC=Cc1cccc(Oc2ccccc2)c1)CC=Cc1cccc(Oc2ccccc2)c1` (stereo not drawn) [cpd 107, N,N-bis(3-Phenoxycinnamyl)Asp-OH], under “0.5 nM [125I]EPO”, the “IC30 μM (Inhibition of EPO binding to EBP-Ig)” value was 30 µM and the “% inh @ 50 μM (Inhibition of EPO binding to EBP-Ig)” value is reported as 78%. In addition, under “Table 6, 50 μM”, the “EPO/EBP-Ig % inh @ 50 μM” value worked out at 78%.

In the case of `COC(=O)C(CCCCNC(=O)OC(C)(C)C)N(Cc1ccc(OCc2ccccc2)cc1)Cc1ccc(OCc2ccccc2)cc1` (stereo not drawn) [cpd 111, N,N-bis(4-Benzyloxybenzyl)Lys(Boc)-OMe], the “EPO/EBP-Ig % inh @ 50 μM” value (Table 7, 50 μM) came out at 5%.

`COC(=O)C(CCCCNC(=O)OC(C)(C)C)N(Cc1ccc(OCc2ccccc2)cc1)Cc1cccc([N+](=O)[O-])c1` (stereo not drawn) [cpd 113, N-(4-Benzyloxybenzyl)-N-(3-nitrobenzyl)Lys(Boc)-OMe]: the “EPO/EBP-Ig % inh @ 50 μM” value (Table 7, 50 μM) amounted to 24%.

With `COC(=O)C(CCCCN)N(Cc1ccc(OCc2ccccc2)cc1)Cc1cccc(NC(=O)c2ccco2)c1` (stereo not drawn) [cpd 117, N-(4-Benzyloxybenzyl)-N-(3-((2-furancarbonyl)amino)benzyl)Lys-OMe], the “% inh @ 50 μM (Inhibition of EPO binding to EBP-Ig)” value (0.5 nM [125I]EPO) was 34%. Moreover, the “EPO/EBP-Ig % inh @ 50 μM” value (Table 7, 50 μM) came to 34%.

For `CC(C)(C)OC(=O)CCC(C(=O)NCCOCCOCCNC(=O)C(CCC(=O)OC(C)(C)C)N(Cc1ccc(OCc2ccccc2)cc1)Cc1ccc(OCc2ccccc2)cc1)N(Cc1ccc(OCc2ccccc2)cc1)Cc1ccc(OCc2ccccc2)cc1` (stereo not drawn) [cpd 245, [N,N-bis(4-Benzyloxybenzyl)Glu(O-t-Bu)-NHCH2CH2OCH2]2], under “Table 11, 50 μM”, the “EPO/EBP-Ig % inh @ 50 μM” value is 0%.

With `O=C(O)CCC(C(=O)NCCOCCOCCNC(=O)C(CCC(=O)O)N(Cc1ccc(OCc2ccccc2)cc1)Cc1ccc(OCc2ccccc2)cc1)N(Cc1ccc(OCc2ccccc2)cc1)Cc1ccc(OCc2ccccc2)cc1` (stereo not drawn) [cpd 246, [N,N-bis(4-Benzyloxybenzyl)GluNHCH2CH2OCH2]2], the “IC30 μM (Inhibition of EPO binding to EBP-Ig)” value (0.5 nM [125I]EPO) amounted to 10 µM. The inhibition at 50 µM was 79% under setting [1] and 79% under setting [2].

As to `CCCCC(=O)Nc1cccc(CN(Cc2cccc(Oc3ccccc3)c2)C(CCC(=O)O)C(=O)NCCOCCOCCNC(=O)C(CCC(=O)O)N(Cc2cccc(NC(=O)CCCC)c2)Cc2cccc(Oc3ccccc3)c2)c1` (stereo not drawn) [cpd 247, [N-(3-Phenoxybenzyl)-N-(3-(pentanoylamino)benzyl)-Glu-NHCH2CH2OCH2]2], the IC50 stood at 18 µM. Also, the “IC30 μM (Inhibition of EPO binding to EBP-Ig)” value (0.5 nM [125I]EPO) is 7 µM. In addition, the inhibition at 50 µM under setting [1] came to 47%. The inhibition at 50 µM under setting [2] was found to be 47%.

As for `COC(=O)C(COC(C)(C)C)N(CC=Cc1cccc(Oc2ccccc2)c1)CC=Cc1cccc(Oc2ccccc2)c1` (stereo not drawn) [cpd 290, N,N-bis(3-Phenoxycinnamyl)Ser(t-Bu)-OMe], the “EPO/EBP-Ig % inh @ 50 μM” value (50 μM compound, Table 16A) turned out to be 0%.

In turn, `O=C(O)[C@H](CO)N(C/C=C/c1cccc(Oc2ccccc2)c1)C/C=C/c1cccc(Oc2ccccc2)c1` [cpd 300, N,N-Bis(3-phenoxycinnamyl)Ser-OH] came in with an IC50 of 145 µM. The “IC30 μM (Inhibition of EPO binding to EBP-Ig)” value (0.5 nM [125I]EPO) stood at 35 µM. The inhibition at 50 µM under setting [1] is 57%. Also, for the setting “read-out: EPO/EBP-Ig % inh @ 50 μM, 50 μM compound, Table 16A”, the inhibition at 50 µM was 57%.

Consider `COC(=O)C(CCC(=O)O)NCC=Cc1cccc(Oc2ccccc2)c1` (stereo not drawn) [cpd 325, N-(3-Phenoxycinnamyl)Glu-OMe], for which the “EPO/EBP-Ig % inh @ 50 μM” value (50 μM compound, Table 19A) was determined as 6%.

Regarding `O=C(O)CCC(NCC=Cc1cccc(Oc2ccccc2)c1)C(=O)O` (stereo not drawn) [cpd 326, N-(3-Phenoxycinnamyl)Glu-OH], the “EPO/EBP-Ig % inh @ 50 μM” value (50 μM compound, Table 19A) is given as 0%.

As for `COC(=O)C(CCC(=O)OC(C)(C)C)NCC=Cc1cccc(Oc2ccccc2)c1` (stereo not drawn) [cpd 334, N-(3-phenoxycinnamyl)Glu(O-t-Bu)-OMe], the “EPO/EBP-Ig % inh @ 50 μM” value (50 μM compound, Table 19A) amounted to 6%.

`CC(C)(C)OC(=O)CCC(NCC=Cc1cccc(Oc2ccccc2)c1)C(=O)O` (stereo not drawn) [cpd 337, N-(3-Phenoxycinnamyl)Glu(O-t-Bu)-OH]: where the note is “50 μM compound, Table 19A”, the “EPO/EBP-Ig % inh @ 50 μM” value amounted to 0%.

Take `COC(=O)[C@H](CO)NCC=Cc1cccc(Oc2ccccc2)c1` [cpd 346, N-(3-Phenoxycinnamyl)Ser-OMe]: where the note is “50 μM compound, Table 20A”, the “EPO/EBP-Ig % inh @ 50 μM” value is 28%.

In the case of `O=C(O)C(CO)NCC=Cc1cccc(Oc2ccccc2)c1` (stereo not drawn) [cpd 347, N-(3-phenoxycinnamyl)Ser-OH], where the note is “50 μM compound, Table 20A”, the “EPO/EBP-Ig % inh @ 50 μM” value stood at 23%.

Turning to `COC(=O)C(COC(C)(C)C)NCC=Cc1cccc(Oc2ccccc2)c1` (stereo not drawn) [cpd 352, N-(3-phenoxycinnamyl)Ser(t-Bu)-OMe], where the note is “50 μM compound, Table 20A”, the “EPO/EBP-Ig % inh @ 50 μM” value is 8%.

(Values after patent US7153869B2, “Substituted amino acids as erythropoietin mimetics” (priority 1998, dated 2006).)
